target: T1, histamine H3 receptors (Homo sapiens, UniProt Q9Y5N1); test: Histamine H3 functional antagonist assay ([35S]-GTPγS SPA on membranes from H3 cells); format: biochemical; conditions: hydrochloride salts tested; H3 functional antagonist assay using membrane prepared from cultured H3 cells; averages of a number of experiments; read-out: functional pKi (fpKi) (converted)
T1 construct: expressed in transfected cells; host or cells: CHO K1 cells carrying pSwitch, transfected with pGeneH3, induced with mifepristone; clone 3H3; membrane preparation
From the text: A membrane preparation containing histamine H3 receptors may be prepared in accordance with the following procedures:
(i) Generation of Histamine H3 Cell Line
DNA encoding the human histamine H3 gene (Huvar, A. et al. (1999) Mol. Pharmacol. 55(6), 1101-1107) was cloned into a holding vector, pCDNA3.1 TOPO (InVitrogen) and its cDNA was isolated from this vector by restriction digestion of plasmid DNA with the enzymes BamHI and Not-1 and ligated into the inducible expression vector pGene (InVitrogen) digested with the same enzymes. The GeneSwitch™ system (a system where in transgene expression is switched off in the absence of an inducer and switched on in the presence of an inducer) was performed as described in U.S. Pat. Nos. 5,364,791; 5,874,534; and 5,935,934. Ligated DNA was transformed into competent DH5α E. coli host bacterial cells and plated onto Luria Broth (LB) agar containing Zeocin™ (an antibiotic which allows the selection of cells expressing the sh ble gene which is present on pGene and pSwitch) at 50 μg ml^−1. Colonies containing the re-ligated plasmid were identified by restriction analysis. DNA for transfection into mammalian cells was prepared from 250 ml cultures of the host bacterium containing the pGeneH3 plasmid and isolated using a DNA preparation kit (Qiagen Midi-Prep) as per manufacturers guidelines (Qiagen).
CHO K1 cells previously transfected with the pSwitch regulatory plasmid (InVitrogen) were seeded at 2×10e6 cells per T75 flask in Complete Medium, containing Hams F12 (GIBCOBRL, Life Technologies) medium supplemented with 10% v/v dialysed foetal bovine serum, L-glutamine, and hygromycin (100 μg ml^−1), 24 hours prior to use. Plasmid DNA was transfected into the cells using Lipofectamine plus according to the manufacturers guidelines (InVitrogen). 48 hours post transfection cells were placed into complete medium supplemented with 500 μg ml^−1 Zeocin™.
10-14 days post selection 10 nM Mifepristone (InVitrogen), was added to the culture medium to induce the expression of the receptor. 18 hours post induction cells were detached from the flask using ethylenediamine tetra-acetic acid (EDTA; 1:5000; InVitrogen), following several washes with phosphate buffered saline pH 7.4 and resuspended in Sorting Medium containing Minimum Essential Medium (MEM), without phenol red, and supplemented with Earles salts and 3% Foetal Clone II (Hyclone). Approximately 1×10e7 cells were examined for receptor expression by staining with a rabbit polyclonal antibody, 4a, raised against the N-terminal domain of the histamine H3 receptor, incubated on ice for 60 minutes, followed by two washes in sorting medium. Receptor bound antibody was detected by incubation of the cells for 60 minutes on ice with a goat anti rabbit antibody, conjugated with Alexa 488 fluorescence marker (Molecular Probes). Following two further washes with Sorting Medium, cells were filtered through a 50 μm Filcon™ (BD Biosciences) and then analysed on a FACS Vantage SE Flow Cytometer fitted with an Automatic Cell Deposition Unit. Control cells were non-induced cells treated in a similar manner. Positively stained cells were sorted as single cells into 96-well plates, containing Complete Medium containing 500 μg ml^−1 Zeocin™ and allowed to expand before reanalysis for receptor expression via antibody and ligand binding studies. One clone, 3H3, was selected for membrane preparation.
(ii) Membrane Preparation from Cultured Cells
All steps of the protocol are carried out at 4° C. and with pre-cooled reagents. The cell pellet is resuspended in 10 volumes of homogenisation buffer (50 mM N-2-hydroxyethylpiperazine-N′-2-ethanesulfonic acid (HEPES), 1 mM ethylenediamine tetra-acetic acid (EDTA), pH 7.4 with KOH, supplemented with 10e-6M leupeptin (acetyl-leucyl-leucyl-arginal; Sigma L2884), 25 μg/ml bacitracin (Sigma B0125), 1 mM phenylmethylsulfonyl fluoride (PMSF) and 2×10e-6M pepstain A (Sigma)). […]

T1 sequence (Q9Y5N1 whole entry): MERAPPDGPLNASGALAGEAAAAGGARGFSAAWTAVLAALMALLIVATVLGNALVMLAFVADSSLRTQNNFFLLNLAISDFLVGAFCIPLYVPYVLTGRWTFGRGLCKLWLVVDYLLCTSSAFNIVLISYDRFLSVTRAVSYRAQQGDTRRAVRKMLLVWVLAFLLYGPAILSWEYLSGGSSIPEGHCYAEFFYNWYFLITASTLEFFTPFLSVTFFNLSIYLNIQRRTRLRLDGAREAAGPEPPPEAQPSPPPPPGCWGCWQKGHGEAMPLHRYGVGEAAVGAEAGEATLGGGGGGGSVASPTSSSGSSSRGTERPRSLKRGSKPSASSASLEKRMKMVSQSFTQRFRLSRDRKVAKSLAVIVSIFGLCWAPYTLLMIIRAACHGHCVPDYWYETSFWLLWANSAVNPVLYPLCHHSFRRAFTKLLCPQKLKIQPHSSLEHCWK

| Ki [nM] | SMILES |
| --- | --- |
| < 31.6 | c1ncc(-c2nc3c(s2)CCN(C2CCC2)CC3)cn1 [Example E58, 6-Cyclobutyl-2-(5-pyrimidinyl)-5,6,7,8-tetrahydro-4H-[1,3]thiazolo[4,5-d]azepine] |
| < 31.6 | c1nc(N2CCCCC2)ncc1-c1nc2c(s1)CCN(C1CCC1)CC2 [Example E61, 6-Cyclobutyl-2-[2-(1-piperidinyl)-5-pyrimidinyl]-5,6,7,8-tetrahydro-4H-[1,3]thiazolo[4,5-d]azepine] |
| < 1.26 | N#Cc1cncc(N2CCC(c3nc4c(s3)CCN(C3CCC3)CC4)CC2)c1 [Example E66, 5-[4-(6-Cyclobutyl-5,6,7,8-tetrahydro-4H-[1,3]thiazolo[4,5-d]azepin-2-yl)-1-piperidinyl]-3-pyridinecarbonitrile] |
| < 0.316 | N#Cc1ccc(N2CCC(c3nc4c(s3)CCN(C3CCC3)CC4)CC2)cc1 [Example E67, 4-[4-(6-Cyclobutyl-5,6,7,8-tetrahydro-4H-[1,3]thiazolo[4,5-d]azepin-2-yl)-1-piperidinyl]benzonitrile] |
| < 1.26 | Cc1ccccc1NC(=O)N1CCC(c2nc3c(s2)CCN(C2CCC2)CC3)CC1 [Example E70, 4-(6-Cyclobutyl-5,6,7,8-tetrahydro-4H-[1,3]thiazolo[4,5-d]azepin-2-yl)-N-(2-methylphenyl)-1-piperidinecarboxamide] |
| < 31.6 | N#Cc1ccc(-c2nc3c(s2)CCN(C2CCCC2)CC3)nc1 [Example E74, 6-(6-Cyclopentyl-5,6,7,8-tetrahydro-4H-[1,3]thiazolo[4,5-d]azepin-2-yl)-3-pyridinecarbonitrile] |
| < 31.6 | CNC(=O)c1ccc(-c2nc3c(s2)CCN(C2CCC2)CC3)nc1 [Example E76, 6-(6-Cyclobutyl-5,6,7,8-tetrahydro-4H-[1,3]thiazolo[4,5-d]azepin-2-yl)-N-methyl-3-pyridinecarboxamide] |
| < 1.26 | CNC(=O)c1ccc(N2CCC(c3nc4c(s3)CCN(C3CCC3)CC4)CC2)cn1 [Example E77, 5-[4-(6-Cyclobutyl-5,6,7,8-tetrahydro-4H-[1,3]thiazolo[4,5-d]azepin-2-yl)-1-piperidinyl]-N-methyl-2-pyridinecarboxamide] |
| < 0.316 | Cc1ccccc1C(=O)N1CCC(c2nc3c(s2)CCN(C2CCC2)CC3)CC1 [Example E78, 6-Cyclobutyl-2-{1-[(2-methylphenyl)carbonyl]-4-piperidinyl}-5,6,7,8-tetrahydro-4H-[1,3]thiazolo[4,5-d]azepine] |
| < 1.26 | Cc1cc(C(=O)N2CCC(c3nc4c(s3)CCN(C3CCC3)CC4)CC2)[nH]n1 [Example E79, 6-Cyclobutyl-2-{1-[(3-methyl-1H-pyrazol-5-yl)carbonyl]-4-piperidinyl}-5,6,7,8-tetrahydro-4H-[1,3]thiazolo[4,5-d]azepine] |
| < 1.26 | O=C(c1ccc(Cl)cc1)N1CCC(c2nc3c(s2)CCN(C2CCC2)CC3)CC1 [Example E80, 2-{1-[(4-Chlorophenyl)carbonyl]-4-piperidinyl}-6-cyclobutyl-5,6,7,8-tetrahydro-4H-[1,3]thiazolo[4,5-d]azepine] |
| < 0.316 | O=C(c1cccc(Cl)c1)N1CCC(c2nc3c(s2)CCN(C2CCC2)CC3)CC1 [Example E81, 2-{1-[(3-Chlorophenyl)carbonyl]-4-piperidinyl}-6-cyclobutyl-5,6,7,8-tetrahydro-4H-[1,3]thiazolo[4,5-d]azepine] |
| < 1.26 | Cc1cccc(C(=O)N2CCC(c3nc4c(s3)CCN(C3CCC3)CC4)CC2)c1 [Example E82, 6-Cyclobutyl-2-{1-[(3-methylphenyl)carbonyl]-4-piperidinyl}-5,6,7,8-tetrahydro-4H-[1,3]thiazolo[4,5-d]azepine] |

Second part, the compound before the results:

| SMILES | Ki [nM] |
| --- | --- |
| CN1CCN(c2ccc(-c3nc4c(s3)CCN(C3CCCC3)CC4)cc2)C1=O [Example E28, 1-[4-(6-Cyclopentyl-5,6,7,8-tetrahydro-4H-[1,3]thiazolo[4,5-d]azepin-2-yl)phenyl]-3-methyl-2-imidazolidinone] | < 0.316 |
| CC(C)N1CCc2nc(-c3ccc(N4CCN(C)C4=O)cc3)sc2CC1 [Example E29, 1-Methyl-3-{4-[6-(1-methylethyl)-5,6,7,8-tetrahydro-4H-[1,3]thiazolo[4,5-d]azepin-2-yl]phenyl}-2-imidazolidinone] | < 1.26 |
| CN1CCN(c2ccc(-c3nc4c(s3)CCN(C3CCCCC3)CC4)cc2)C1=O [Example E30, 1-[4-(6-Cyclohexyl-5,6,7,8-tetrahydro-4H-[1,3]thiazolo[4,5-d]azepin-2-yl)phenyl]-3-methyl-2-imidazolidinone] | < 1.26 |
| CN1CCN(c2ccc(-c3nc4c(s3)CCN(CC3CC3)CC4)cc2)C1=O [Example E31, 1-{4-[6-(Cyclopropylmethyl)-5,6,7,8-tetrahydro-4H-[1,3]thiazolo[4,5-d]azepin-2-yl]phenyl}-3-methyl-2-imidazolidinone] | < 1.26 |
| CC(C)CN1CCc2nc(-c3ccc(N4CCN(C)C4=O)cc3)sc2CC1 [Example E32, 1-Methyl-3-{4-[6-(2-methylpropyl)-5,6,7,8-tetrahydro-4H-[1,3]thiazolo[4,5-d]azepin-2-yl]phenyl}-2-imidazolidinone] | < 0.316 |
| N#Cc1cncc(N2CCC(c3nc4c(s3)CCN(C3CCC3)CC4)C2)c1 (stereo not shown) [Example E39, 5-[3-(6-Cyclobutyl-5,6,7,8-tetrahydro-4H-[1,3]thiazolo[4,5-d]azepin-2-yl)-1-pyrrolidinyl]-3-pyridinecarbonitrile] | < 1.26 |
| c1ccc(-c2nc3c(s2)CCN(C2CCC2)CC3)cc1 [Example E42, 6-Cyclobutyl-2-phenyl-5,6,7,8-tetrahydro-4H-[1,3]thiazolo[4,5-d]azepine] | < 31.6 |
| CNC(=O)c1ccc(-c2nc3c(s2)CCN(C2CCC2)CC3)cc1 [Example E43, 4-(6-Cyclobutyl-5,6,7,8-tetrahydro-4H-[1,3]thiazolo[4,5-d]azepin-2-yl)-N-methylbenzamide] | < 1.26 |
| O=C1OCCN1c1ccc(-c2nc3c(s2)CCN(C2CCC2)CC3)cc1 [Example E44, 3-[4-(6-Cyclobutyl-5,6,7,8-tetrahydro-4H-[1,3]thiazolo[4,5-d]azepin-2-yl)phenyl]-1,3-oxazolidin-2-one] | < 0.316 |
| N#Cc1ccc(-c2nc3c(s2)CCN(C2CCC2)CC3)cc1 [Example E48, 4-(6-Cyclobutyl-5,6,7,8-tetrahydro-4H-[1,3]thiazolo[4,5-d]azepin-2-yl)benzonitrile] | < 1.26 |
| N#Cc1ccc(-c2nc3c(s2)CCN(C2CCC2)CC3)cn1 [Example E49, 5-(6-Cyclobutyl-5,6,7,8-tetrahydro-4H-[1,3]thiazolo[4,5-d]azepin-2-yl)-2-pyridinecarbonitrile] | < 31.6 |
| CNC(=O)c1ccc(-c2nc3c(s2)CCN(C2CCC2)CC3)cn1 [Example E51, 5-(6-Cyclobutyl-5,6,7,8-tetrahydro-4H-[1,3]thiazolo[4,5-d]azepin-2-yl)-N-methyl-2-pyridinecarboxamide] | < 1.26 |
| O=C1CCCN1c1ccc(-c2nc3c(s2)CCN(C2CCC2)CC3)cn1 [Example E52, 1-[5-(6-Cyclobutyl-5,6,7,8-tetrahydro-4H-[1,3]thiazolo[4,5-d]azepin-2-yl)-2-pyridinyl]-2-pyrrolidinone] | < 0.316 |
| CN1CCN(c2ccc(-c3nc4c(s3)CCN(C3CCC3)CC4)cn2)C1=O [Example E53, 1-[5-(6-Cyclobutyl-5,6,7,8-tetrahydro-4H-[1,3]thiazolo[4,5-d]azepin-2-yl)-2-pyridinyl]-3-methyl-2-imidazolidinone] | < 0.316 |
| c1cc(N2CCCCC2)ncc1-c1nc2c(s1)CCN(C1CCC1)CC2 [Example E55, 6-Cyclobutyl-2-[6-(1-piperidinyl)-3-pyridinyl]-5,6,7,8-tetrahydro-4H-[1,3]thiazolo[4,5-d]azepine] | < 1.26 |
